This note sets out measurements from patent publication US12350364B2, “Lipid body compositions, products made therefrom, methods of making same, and methods of use” (Xylome Corporation, priority 2019, dated 2025).

Holding throughout (type): physicochemical
The nature of data set [1]: Lidocaine binding and partitioning into lipid bodies (UV 260 nm after 0.2 μm filtration). The text has this:
Lipid bodies were cleared of excipients and antimicrobial preservative by undergoing a 1:10 wash in ethanol followed by rehydration in distilled water.

Data set [2] is described as follows: Drug loading into lipid-body composition and release into PBS (UV-VIS / HPLC). As to conditions: for drug released, concentration: 6-fold dilution.
A short description of data set [3]: Uptake of hydrophobic dyes by lipid bodies (mixing, centrifugation/flotation). As to conditions: for uptake of hydrophobic model compound into lipid bodies: about 50% lipid bodies, mixed about 10 minutes, centrifuged. How it is done: In this example, fermentations of different engineered hyper lipogenic Lipomyces starkeyi were used to create lipid bodies. Using the engineered hyper-lipogenic strain XYL-403, compositions of lipid bodies were prepared with a diameter from 6.9+/−1.4 microns when measured under a microscope using a calibrated Petroff Hauser counter. Following the initial preparation of lipid bodies, the lipid bodies were fused using high levels of salt at 1M NaCl, solvents such as ethanol at 20% (v/v) in water, and application of shear force using centrifugation (FIG. 12A). Homogenization, filtration, or chemical treatments can be used as alternatives to or in additional centrifugation to induce shear force. Thus, compositions utilizing even larger lipid bodies (e.g., between 12 to 50 μm) can be developed using physically modified and merged lipid bodies. The advantages of larger lipid bodies can be extended using high total volumes of drug carrying capacity.
This example opens the possibility of even higher volumetric carrying capacity of lipid-body compositions of the invention when expanded to the upper limit of known diameter.
In this example, lipid bodies at about 50% concentration in base composition of example 1A were subjected to the addition of concentrated Nile red, which had been solubilized in DMSO and used in this example as a surrogate for a hydrophobic compound or hydrophobic drug. The lipid-body composition was mixed with Nile red for 10 minutes and centrifuged. After centrifugation, the lipid bodies separate by flotation and all of the Nile red entered into the lipid bodies. The lipid bodies remain hydrophilic on the exterior of the lipid body spheres and continue to feel aqueous.
In another version of this example, lipid bodies at approximately 50% by dry weight were mixed with a second hydrophobic model drug compound, Sudan black. […] Similar to the Nile red results, Sudan black is shown to be taken up by lipid bodies (FIG. 13B).

[4] abbreviates: 100 μL of 5 mg/mL stock per 1 g lipid bodies, 300 mg in 1 mL PBS, 15 min, room temperature, UV 343 nm.
Where [5] appears, read: Example 19: dry powder loading plus 33 μL PBS, UV 350 nm.

For the compound `CCN(CC)CC(=O)Nc1c(C)cccc1C` [Lidocaine], the “Lidocaine in Aqueous Cream Fraction” value in data set [1] (500 μg Lidocaine in Salt (1M NaCl)) stood at 72%; in data set [1] (500 μg Lidocaine in Water), 83%; in data set [1] (Control: 500 μg Lidocaine without Lipid Bodies and Filtered) it was 100%.
On to `CCCCc1nc(Cl)c(CO)n1Cc1ccc(-c2ccccc2-c2nn[nH]n2)cc1` [Losartan], for which the “Losartan released into 1 mL PBS, concentration” value in data set [2] (100 μL of 5 mg/mL stock per 1 g lipid bodies, 300 mg in 1 mL PBS, HPLC 210 nm, 3.9 minutes) came to 54.4 µg/mL. This compound displayed a total release in data set [2] (Losartan, 300 mg in 1 mL PBS, HPLC 210 nm) of 36.3%.
Consider `CCN(CC)c1ccc2nc3c4ccccc4c(=O)cc-3oc2c1` [Nile red], for which the “uptake of hydrophobic model compound into lipid bodies” value in data set [3] is reported as “quantitatively complete”.
As to `CC1(C)Nc2cccc3c(N=Nc4ccc(N=Nc5ccccc5)c5ccccc45)ccc(c23)N1` [Sudan black], the “uptake of hydrophobic model compound into lipid bodies” value in data set [3] was “essentially all of the Sudan black loaded into the lipid bodies”. The “taken up into the lipid bodies” value in data set [3] (merged very large lipid bodies (1M NaCl, 20% ethanol, centrifugation)) is given as approximately 100%.
Take `CC(C)OC(=O)CCC/C=C\C[C@@H]1[C@@H](/C=C/[C@@H](O)COc2cccc(C(F)(F)F)c2)[C@H](O)C[C@@H]1O` [Travoprost]: the Travoprost released in data set [2] (first procedure: 2 μL of 25 mg/mL per 1 g lipid bodies, 300 mg in 1 mL PBS, HPLC 210 nm) amounted to 50%. For the same compound, the Travoprost release in data set [2] (second procedure: 250 μg evaporated concentrate per 1 g lipid bodies, 100 mg in 1 mL PBS, HPLC) was found to be 60.7%.
In the case of `CCN(CC)CCCC(C)Nc1ccnc2cc(Cl)ccc12` (stereo not drawn) [chloroquine], in data set [2] (setting [4]), the total release is 8.1% and the “drug released, concentration” value stood at 12.1 µg/mL. In data set [2] (Example 21, repeat dilution (1 to 3 then 1 to 2)), the total release worked out at 8.1%.
On to `COc1cc2c(c(OC)c1OC)-c1ccc(OC)c(=O)cc1[C@@H](NC(C)=O)CC2` [colchicine], for which the colchicine released was 5.9 µg/mL in data set [2] (Example 15: 55% aqueous/45% drug-containing lipid-body composition, 100 μL of 2 mg/mL stock per 1 g lipid body, 300 mg in 1 mL PBS, 15 min, room temperature, UV 350 nm); 41% in data set [2] (Example 16: 62% liquid/38% composition, HPLC); 22.6 µg/mL in data set [2] (Example 17: 67% liquid/33% drug-containing lipid-body composition, 178 μL PBS added, UV 350 nm); 3,390 μg/mL in data set [2] (Example 18: 30 mg dry powder mixed into 1 g lipid bodies, 300 mg in 2 mL PBS, 15 min, room temperature, UV 350 nm); 4000 µg/mL in data set [2] (setting [5]). Further, in data set [2] (Example 15: 55% aqueous/45% drug-containing lipid-body composition, 300 mg in 1 mL PBS, 15 min, room temperature, UV 350 nm), the drug release was determined as 9.8%. In addition, the drug released was determined as 61.5 µg/mL in data set [2] (Example 16: 62% liquid/38% composition, HPLC (350 nm, 2.9 minutes)) and 51.8 µg/mL in data set [2] (Example 16: 62% liquid/38% drug-containing lipid-body composition, 5 mg/mL stock, 200 μL PBS added, 1 mL PBS, room temperature, UV 350 nm). The “released, % of the total colchicine” value in data set [2] (Example 16: 62% liquid/38% composition, UV 350 nm) is listed as 34.5%; in data set [2] (setting [5]) it was 44%. Further, in data set [2] (Example 17: 67% liquid/33% composition, UV 350 nm), the “released, % of the total compound loaded” value was found to be 15.1%. In addition, in data set [2] (Example 18: dry powder loading, 50% lipid-body composition, UV 350 nm), the “released, % of the total colchicine present” value came to 37.6%.
For `CCN(CCO)CCCC(C)Nc1ccnc2cc(Cl)ccc12` (stereo not drawn) [hydroxychloroquine], in data set [2] (setting [4]), the total release is given as 10.4% and the “drug released, concentration” value amounted to 5.66 µg/mL.
